Data as given in patent publication US5087284A, “5-substituted thiadiazole ureas and their use as herbicides” (Rhone-Poulenc, Inc., priority 1989, dated 1992).

Tests used:
Type in all cases: in vivo
crops and weed species = experiment: Pre- and post-emergence herbicide tests, overall assessment; settings: TABLES III-VI
Protocol: All crop and weed species were planted individually in 3" plastic pots containing potting soil. Four seeds each of corn, cotton, and snapbeans were seeded to a depth equal to the diameter of the seed. All other species were surface seeded and sprinkled with screened soil in an amount sufficient to cover the seed. Immediately after planting, all pots were watered by sub-irrigation in greenhouse trays. Pots for the pre-emergence phase were seeded one day before treatment.
Planting dates for the post-emergence phase were varied so that all seedlings would reach the desired stage of development simultaneously. The proper stage of seedling development for treatment in the post-emergence phase is as follows:
Compounds were tested at rates of application equivalent to 8 lbs. of actual compound per acre in a spray volume of 38 gallons per acre. Spray hood constants required to deliver the above volume are as follows:
Spray applications were made in a hood containing a removable belt and fixed spray nozzle. For passage through the spray hood, one pot of each specie (pre-emergence phase) was placed on the rear half of the flat. Treatments were removed to the greenhose after spraying. Watering during the observation period was done only by sub-irrigation.
Two weeks after treatment, pre- and post-emergence injury or control was visually rated, and the results were as shown in the following tables. Pre-emergence data are provided in TABLE III and post-emergence data are provided in TABLE IV, for compounds having the formula illustrated in TABLE I. Correspondingly, pre-emergence and post-emergence data, respectively, are set forth in TABLES V AND VI, for compounds having the formula illustrated in TABLE II.

Oats [1] = experiment: Field pre-emergence test, oats; settings: reading 0 (no effect) to 10 (completely killed), the values are: rating score 0–10
Protocol: (§1) Forty rows, 70 feet long, were planted to weeds and crops. Two rows were planted on each bed. Beds were 40 inches apart from center to center. The two rows were about 10 inches apart on each. Beds were rolled prior to planting to provide a uniform smooth surface. Soil temperature at a depth of 11/2 inches was 66° F. at time of planting. Post-emergence applications were made by spraying bands across rows 10 feet wide using a self-propelled plot sprayer with a 10 foot boom equipped with Teejet 8001 flat spray nozzle tips and operated at 40 psi. A total of 84 fluid ounces of spray material was applied to three replicates. Each replicate plot was 10 feet wide by 66.67 feet long.
(§2) An additional 100 feet of crops and weeds shown in TABLES XIII and XIV were planted in the same manner as the above post-emergence plots. Soil temperature at planting was […] at a depth of 11/2 inches. […]
(§3) Eight days after the application, readings were made on the effect of the chemicals on each crop and weed in the post-emergence treatment. A reading of 0 was recorded if no effect was observed; 10 recorded if the plants were completely killed, and readings of 1 to 9 for intermediate kills. A second reading of the post-emergence treatments was made 14 days after the application.
(§4) Readings were made 14 and 20 days after the pre-emergence application.

Oats [2] = experiment: Field post-emergence test, oats; settings: 2 lbs/acre, reading 0 (no effect) to 10 (completely killed), the values are: rating score 0–10
Protocol: as §1, §3

Sinapis [3] = experiment: Field post-emergence test, Sinapis; settings: 2 lbs/acre, reading 0 (no effect) to 10 (completely killed), the values are: rating score 0–10
Protocol: as §1, §3

Wheat [4] = experiment: Field post-emergence test, wheat; settings: 2 lbs/acre, reading 0 (no effect) to 10 (completely killed), the values are: control rating (0–10 scale)
Protocol: as §1, §3

Sinapis [5] = experiment: Field pre-emergence test, Sinapis; settings: reading 0 (no effect) to 10 (completely killed), the values are: rating score 0–10
Protocol: as §1, §2, §3, §4

Wheat [6] = experiment: Field pre-emergence test, wheat; settings: reading 0 (no effect) to 10 (completely killed), the values are: rating score 0–10
Protocol: as §1, §2, §3, §4

Row | SMILES | selectivity when applied to a certain crop or weed species (crops and weed species) | effectiveness applied to a variety of crops and weed species (crops and weed species) | further results
1 | Cc1nnc(NC(=O)N(C)C)s1 [Example 19] | – | – | selectivity post-emergence versus pre-emergence (crops and weed species): The converse of this relationship
2 | CCNC(=O)Nc1nnc(C(F)(F)F)s1 [Example 9] | more selective | – | –
3 | CSc1nnc(N(C)C(=O)N(C)C)s1 [Example 5, 1,1,3-trimethyl-3-[5-methylthio-3-(1,3,4-thiadiazolyl)] urea] | – | extremely effective | –
4 | CNC(=O)Nc1nnc(COC)s1 [Example 25] | more selective | – | –
5 | CNC(=O)Nc1nnc(CC(C)C)s1 [Example 21] | more selective | – | –
6 | CNC(=O)Nc1nncs1 [Example 35] | more selective | – | –
7 | CCN(C(=O)NC)c1nnc(C(F)(F)F)s1 [Example 37] | – | extremely effective | –
8 | CNC(=O)Nc1nnc(C(F)(F)F)s1 [Example 1, 1-Methyl-3-[5-Trifluoromethyl-2-(1,3,4-Thiadiazolyl)] Urea] | – | extremely effective | PRE-EMERGENCY ACTIVITY, % CONTROL (Oats [1]; 1 lbs/acre): 10; PRE-EMERGENCY ACTIVITY, % CONTROL (Oats [1]; 2 lbs/acre): 10; POST-EMERGENCE ACTIVITY, % CONTROL (Oats [2]): 9; POST-EMERGENCE ACTIVITY, % CONTROL (Sinapis [3]): 10; POST-EMERGENCE ACTIVITY, % CONTROL (Wheat [4]): 10; PRE-EMERGENCY ACTIVITY, % CONTROL (Sinapis [5]; 1 lbs/acre): 10; PRE-EMERGENCY ACTIVITY, % CONTROL (Sinapis [5]; 2 lbs/acre): 10; PRE-EMERGENCY ACTIVITY, % CONTROL (Wheat [6]; 1 lbs/acre): 10; PRE-EMERGENCY ACTIVITY, % CONTROL (Wheat [6]; 2 lbs/acre): 10
9 | CN(C)C(=O)Nc1nnc(C(F)(F)F)s1 [Example 2, 1,1-Dimethyl-3-[5-Trifluoromethyl-2-(1,3,4-Thiadiazolyl)] Urea] | – | extremely effective | –
10 | CNC(=O)N(C)c1nnc(C(F)(F)F)s1 [Example 36] | – | extremely effective | –
11 | O=C(Nc1ccc(Cl)cc1)Nc1nnc(C(F)(F)F)s1 [Example 15] | more selective | – | –
12 | O=C(Nc1ccc(Cl)c(Cl)c1)Nc1nnc(C(F)(F)F)s1 [Example 16] | more selective | – | –
13 | C=CCNC(=O)Nc1nnc(C(F)(F)F)s1 [Example 12] | – | – | selectivity post-emergence versus pre-emergence (crops and weed species): control post-emergence growth, while have little effect in regard to pre-emergence
14 | CNC(=O)Nc1nnc(SC)s1 [Example 26] | – | extremely effective | –
15 | CCc1nnc(NC(=O)N(C)C)s1 [Example 20] | more selective | – | –
